Reference: article PMC10791089, “Identification and evaluation of antiviral activity of novel compounds targeting SARS-CoV-2 virus by enzymatic and antiviral assays, and computational analysis” (Journal of Enzyme Inhibition and Medicinal Chemistry, 2024)
Several values for one entry are separate records, joined by “and”; a condition that tells them apart may be missing. Equal entries are not always repeated. Where two headings read alike, the source gives them in different places.

Columns and labels:
[1] = target: SARS-CoV-2 M^pro (Severe acute respiratory syndrome coronavirus 2, UniProt P0DTD1); test: biochemical
[2] = target: T1, SARS-CoV-2 PL^pro (Severe acute respiratory syndrome coronavirus 2, UniProt P0DTD1); test: biochemical; assay type: biochemical
[3] = system: SARS-CoV-2 strain Slovakia/SK-BMC5/2020; test: microbe, parasite or virus in culture; assay type: cell-based
[4] = system: VERO-E6 cells; test: Cell viability MTT assay in VERO-E6 cells; assay type: cell-based, African Green Monkey; details: VERO-E6 cell line, 72 h
[5] = system: VERO-E6, Caco-2, PK-15, and A549 cells; test: Cell viability MTT assay, averaged over screened cell lines; details: concentration causing >40% reduction in number of viable cells, 72 h, 0.5-30 µM, n/o = no cytotoxic effect observed within the concentration range
[6] = system: severe COVID-19 and hospitalisation; parameters: method as in PMID 34726479; details: treatment started during the first days after appearance of symptoms; cited from earlier work
[7] = target: T1, SARS-CoV-2 PL^pro; test: biochemical
[8] = system: PL^pro; details: read-out: IC50 deubiquitinase activity; drug repurposing study; cited from earlier work
[9] = read-out: IC50 Enzyme assay PA PL^pro, protease activity, 1 h at 37 °C, 1 mM DTT
[10] = Severe acute respiratory syndrome coronavirus 2, Vero C1008, 72 h, read-out: EC50 Plaque reduction assay
[11] = Severe acute respiratory syndrome coronavirus 2, Vero C1008, read-out: EC50 from the sigmoidal model (Figure 3 B1-B5)
[12] = protease activity, 4 h at room temperature, 1 mM DTT, read-out: IC50 Enzyme assay PA M^pro
[13] = protease activity, 1 h at 37 °C, 1 mM DTT, read-out: IC50 Enzyme assay PA PL^pro
[14] = deubiquitinase activity, 1 h at 37 °C, 1 mM DTT, read-out: IC50 Enzyme assay DUA PL^pro
[15] = VERO-E6 cells, MOI 1.0, 72 h, 0.1-30 µM, n/o = no antiviral effect observed within the concentration range
[16] = Severe acute respiratory syndrome coronavirus 2, Vero C1008, VERO-E6 cells, MOI 1.0, 72 h, 0.1-30 µM, n/o = no antiviral effect observed within the concentration range, read-out: EC50 Plaque reduction assay

With `NCCCNC(=O)OC1C/C(=C\c2ccc([N+](=O)[O-])cc2)C(O)/C(=C/c2ccc([N+](=O)[O-])cc2)C1` (stereo not drawn) [Compound T122] as the compound, how does the IC50 [1] read?
Its IC50 is over 100 µM.

And the IC50 [2, 9]?
The IC50 was under 100 µM.

And the EC50 [3, 10]?
The EC50 was 17 µM.

And the EC50 [3, 11]?
The EC50 was 17 µM.

And the “CTE in VERO-E6 cells” value [4]?
Its value is over 30 µM.

What about the “CTE Cell viability MTT assay” value [5] of the same compound?
The value was over 30.0 µM.

For `CC(C)(C)[C@H](NC(=O)C(F)(F)F)C(=O)N1C[C@H]2[C@@H]([C@H]1C(=O)N[C@H](C#N)C[C@@H]1CCNC1=O)C2(C)C` [nirmatrelvir], which “protection against severe COVID-19 and hospitalisation” value [6] is on record?
Its value is “approximately 90%”.

What does the source list for `O=C1/C(=C/c2ccc([N+](=O)[O-])cc2)CC(O)C/C1=C\c1ccc([N+](=O)[O-])cc1` (stereo not drawn) [Compound T97]?
IC50 [1]: > 100 µM; IC50 [2]: > 100 µM; IC50 [7]: > 100 µM; CTE in VERO-E6 cells [4]: approximately 5 µM; CTE Cell viability MTT assay [5]: >5.0 µM

For `COc1cc(/C=C2\CC(OC(=O)NCCCN)C/C(=C\c3ccc(O)c(OC)c3)C2=O)ccc1O` (stereo not drawn) [Compound T123], which IC50 [1, 12] is on record?
The IC50 was over 100 µM.

And the IC50 [2, 13]?
Its IC50 is 60 µM.

And the IC50 [7, 14]?
The IC50 was 75 µM.

What about the “EC50 Plaque reduction assay” value [3, 15] of the same compound?
The value was “no antiviral effect was observed and did not show any inhibitory efficiency and n/o”.

Which results are given for `CC(C)C[C@H](N)C(=O)NCCCNC(=O)OC1C/C(=C\c2ccc([N+](=O)[O-])cc2)C(=O)/C(=C/c2ccc([N+](=O)[O-])cc2)C1` (stereo partly drawn) [Compound T124]?
IC50 [1]: > 100 µM; IC50 [2]: > 100 µM; IC50 [7]: > 100 µM; EC50 [3, 10]: 15.9 µM; EC50 [3, 11]: 15.9 µM; CTE in VERO-E6 cells [4]: > 30 µM; CTE Cell viability MTT assay [5]: >30.0 µM

With `Cc1ccc(/C=C2\CNC/C(=C\c3ccc(C)cc3)C2=O)cc1` [NSC63283] as the compound, how does the IC50 [8] read?
Its IC50 is over 100 µM.

For `CCC(CC)COC(=O)[C@H](C)N[P@](=O)(OC[C@H]1O[C@@](C#N)(c2ccc3c(N)ncnn23)[C@H](O)[C@@H]1O)Oc1ccccc1` [Compound C8, Remdesivir, reference compound], which EC50 [3, 16] is on record?
Its EC50 is 1.8 µM.

And the “CTE Cell viability MTT assay” value [5]?
Its value is “n/o”.

What does the source list for `CC(C)C[C@H](NC(=O)OC1C/C(=C\c2ccc([N+](=O)[O-])cc2)C(=O)/C(=C/c2ccc([N+](=O)[O-])cc2)C1)C(N)=O` (stereo partly drawn) [Compound T120]?
IC50 [1]: > 100 µM; IC50 [2, 9]: < 100 µM; EC50 [3, 10]: 3.4 µM; EC50 [3, 11]: 3.43 µM; CTE in VERO-E6 cells [4]: > 10 µM and 10 to 15 µM; CTE Cell viability MTT assay [5]: >10.0 µM

With `N[C@@H](Cc1ccccc1)C(=O)N1C/C(=C\c2ccc(Cl)c(Cl)c2)C(=O)/C(=C/c2ccc(Cl)c(Cl)c2)C1` [RA-190, reference compound] as the compound, how does the IC50 [1, 12] read?
The IC50 was over 100 µM.

And the IC50 [2, 13]?
Its IC50 is over 100 µM.

What about the IC50 [7, 14] of the same compound?
The IC50 was over 100 µM.

What about the EC50 [3, 16] of the same compound?
Its EC50 is 3 µM.

For `Cc1ccc(N)cc1C(=O)N[C@H](C)c1cccc2ccccc12` [Compound C9, GRL0617, reference compound], which EC50 ([3]; VERO-E6 cells, MOI 1.0, 72 h, 0.1-30 µM, n/o = no antiviral effect observed within the concentration range, read-out: EC50 Plaque reduction assay) is on record?
The EC50 was 2.5 µM.

With `CC(C)C[C@@H](NC(=O)OCc1ccccc1)C(=O)N[C@@H](CC1CCNC1=O)C(O)S(=O)(=O)O` (stereo partly drawn) [Compound C10, GC376, reference compound] as the compound, how does the EC50 [3, 16] read?
Its EC50 is 1 µM.

With `NC(=O)[C@H](Cc1ccccc1)NC(=O)OC1C/C(=C\c2ccc([N+](=O)[O-])cc2)C(=O)/C(=C/c2ccc([N+](=O)[O-])cc2)C1` (stereo partly drawn) [Compound T121] as the compound, how does the IC50 [1] read?
The IC50 was over 100 µM.

And the IC50 [2]?
Its IC50 is over 100 µM.

And the IC50 [7]?
The IC50 was over 100 µM.

What about the EC50 [3, 10] of the same compound?
The EC50 was 8.4 µM.

What about the EC50 [3, 11] of the same compound?
Its EC50 is 8.39 µM.

And the “CTE in VERO-E6 cells” value [4]?
Its value is 10 to 15 µM.

And the “CTE Cell viability MTT assay” value [5]?
The value was over 10.0 to 15.0 µM.

What does the source list for `N#CSc1cc(SC#N)c(N)nc1N` [Compound C4, PR-619, reference compound]?
IC50 [1, 12]: 0.7 µM; IC50 [2, 13]: 0.1 µM; IC50 [7, 14]: 0.2 µM; EC50 [3, 10]: 9 µM; CTE Cell viability MTT assay [5]: >10.0 µM; CTE Cell viability MTT assay ([5]; listed as PR-619): 5 to 10 µM

Which results are given for `CC(C)(C)OC(=O)NCCCC[C@H](NC(=O)OC1C/C(=C\c2ccc([N+](=O)[O-])cc2)C(=O)/C(=C/c2ccc([N+](=O)[O-])cc2)C1)C(=O)O` (stereo partly drawn) [Compound T105]?
IC50 [1]: > 100 µM; IC50 [2]: > 100 µM; IC50 [7]: > 100 µM; EC50 [3, 10]: > 30 µM; EC50 Plaque reduction assay [3, 15]: no antiviral effect was observed and n/o; CTE Cell viability MTT assay [5]: no observed cytotoxic effect and n/o

For `O=[N+]([O-])c1ccc(/C=C2\CC(O)C/C(=C\c3ccc([N+](=O)[O-])cc3)C2O)cc1` (stereo not drawn) [Compound T125], which IC50 [1] is on record?
Its IC50 is over 100 µM.

And the IC50 [2, 9]?
Its IC50 is under 100 µM.

What about the “EC50 Plaque reduction assay” value [3, 15] of the same compound?
The value was “no antiviral effect was observed and did not show any inhibitory efficiency and no antiviral activity and n/o”.

And the “CTE Cell viability MTT assay” value [5]?
Its value is “no observed cytotoxic effect and n/o”.

Which results are given for `O=C1/C(=C/c2ccc([N+](=O)[O-])cc2)CNC/C1=C\c1ccc([N+](=O)[O-])cc1` [RA-9, reference compound]?
EC50 [3, 10]: 12.1 µM; CTE Cell viability MTT assay [5]: >30.0 µM

For `NCCCNC(=O)OC1C/C(=C\c2ccc([N+](=O)[O-])cc2)C(=O)/C(=C/c2ccc([N+](=O)[O-])cc2)C1` (stereo not drawn) [Compound T98], which IC50 [1] is on record?
The IC50 was over 100 µM.

What about the IC50 [2, 9] of the same compound?
Its IC50 is under 100 µM.

What about the EC50 [3, 10] of the same compound?
Its EC50 is 6.7 µM.

What about the EC50 [3, 11] of the same compound?
Its EC50 is 6.69 µM.

And the “CTE in VERO-E6 cells” value [4]?
The value was > 15 µM and 10 to 15 µM.

What about the “CTE Cell viability MTT assay” value [5] of the same compound?
The value was over 15.0 to 30.0 µM.
